Laboratory results taken from patent US20200284781A1, “TEST METHOD OF COMBINED TOXICITY FOR CH[…] BUTACHLOR” (priority 2019, published 2020).
Converted amounts (≈) assume the structure as drawn.

Legend:
[1] = Combined toxicity of chlorpyrifos and butachlor to Japanese medaka larvae; conditions: in vivo
Description: (§1) F. Combined toxicity test: The toxicity test is performed on zebrafish larvae and Japanese medaka larvae, the test procedure is as follows:
b. Japanese medaka: A single pesticide is used to measure the LC50 value of Japanese medaka for 96 hours, mixing chlorpyrifos and butachlor to form binary mixed systems with different ratios of 1:4, 2:3, 1:1, 3:2 and 4:1, according to the pre-experiment results, 5-7 different concentrations are set at equal logarithmic intervals to determine the combined toxicity of the mixed system to Japanese medaka, the method is the same as the determination of single toxicity, the total concentration of the binary mixture is the sum of the concentrations of the two components;
b. Japanese medaka: A single pesticide is used to measure the LC50 value of Japanese medaka for 96 hours, mixing chlorpyrifos and butachlor to form binary mixed systems with different ratios of 1:4, 2:3, 1:1, 3:2 and 4:1, according to the pre-experiment results, 5-7 different concentrations with a geometrical ratio are set at equal logarithmic intervals to determine the combined toxicity of the mixed system to Japanese medaka the method is the same as the determination, of single toxicity, the total concentration of the binary mixture is the sum of the concentrations of the two components;
(§2) H. Data processing: Calculating the LC50 value of pesticides on larvae and their 95% confidence limits by probit analysis based on the number and time of dead fish larvae, and using 95% confidence limit of LC50 as the criterion to determine whether the toxicity difference of different drugs is significant, LC50≤0.1 mg a.i. L^−1, is hypertoxic; 0.1<LC50≤1.0 mg a.i. L^−1, is high toxicity; 1.0<LC50≤10.0 mg a.i. L^−1, is medium toxicity; LC50>10.0 mg a.i. L^−1, is low toxicity, the maximum allowable concentration of MPC employs 100 as the protection factor, the formula is: MPC=96 h-LC50/100, to get the maximum allowable concentration of a poison.

[2] = Single toxicity of chlorpyrifos and butachlor to Japanese medaka larvae; conditions: in vivo, other: immersion in test solution (waterborne exposure), read-out: LC50 (95% CI)
Description: (§3) H. Data processing: Calculating the LC50 value of pesticides on larvae and their 95% confidence limits by probit analysis based on the number and time of dead fish larvae, and using 95% confidence limit of LC50 as the criterion to determine whether the toxicity difference of different pesticides is significant, LC50≤0.1 mg a.i. L^−1, is hypertoxic; 0.1<LC50≤1.0 mg a.i. L^−1, is high toxicity; 1.0<LC50≤[…] a.i. L^−1, is medium toxicity; LC50>10.0 mg a.i. L^−1 is low toxicity. The maximum allowable concentration of MPC employs 100 as the protection factor, the formula is: MPC=96 h-LC50/100, to get the maximum allowable concentration of a poison.
as §2
(§4) Wherein the larvae in the migratory period in step E refer to fish 120 h after fertilization of eggs, for improving the accuracy of the test.

[3] = Single toxicity of chlorpyrifos and butachlor to zebrafish larvae; conditions: in vivo, other: immersion in test solution (waterborne exposure), read-out: LC50 (95% CI)
Description: as §3, §2, §4

[4] = Combined toxicity of chlorpyrifos and butachlor to zebrafish larvae; conditions: in vivo, read-out: LC50 (95% CI) of the component in the mixture
Description: as §1
a. Zebrafish larvae: The LC50 value of zebrafish larvae with a single pesticide for 96 h is a toxic unit, and 5-7 different concentrations with a geometrical ratio, test method and calculation of LC50 value of each exposure time are the same as 1.4.2;
as §2

[5] = Single toxicity of chlorpyrifos and butachlor to zebrafish embryos; format: in vivo; conditions: in vivo, other: immersion in test solution (waterborne exposure), read-out: LC50 (95% CI)
Description: (§5) D. Toxicity of pesticides to zebrafish embryos: On the basis of clearing the effective concentration range of pesticides in pre-tests, diluting the pesticide stock solution with standard dilution water to 5-7 concentrations with a geometrical ratio, and using a 24 well cell culture dish for exposure apparatus, the volume of each well is 3 mL, 20 wells are the same experimental concentration, and the remaining 4 wells are blank controls; during the experiment, of test solution and 1 randomly selected 3 hpf (hourpost-fertilization) normal fertilized embryo at the embryo shield stage were put into every well, set up 3 replicates at each concentration, every culture dish as a replicate, and incubating in a multifunctional incubator at 26±1° C. with a photoperiod of 14 h (light): 10 h (dark);
(§6) Preferably, in the step D, the test solution needs to be replaced every 24 h, observing and microscopical observing the CK group and the exposed group every 24 h, recording the number of embryos with normal development and malformations, and calculating the number of embryos hatched and larvae malformations, the experiment lasts 96 hours.
as §5, with “24-well” for “24 well”, “poisoning” for “exposure”, “experiment, 2 mL” for “experiment,”, “C. V:” for “C.”
as §2
(§7) Wherein in the step D, the test solution needs to be replaced every 24 h, observing and microscopical observing the CK group and the exposed group every 24 h, recording the number of embryos with normal development and malformations, and calculating the number of embryos hatched and larvae malformations, the experiment lasts 96 hours, for structural analysis.

zebrafish embryos = assay: as above; format: in vivo
Description: as §5, §6
as §5, with “24-well” for “24 well”, “poisoning” for “exposure”, “experiment, 2 mL” for “experiment,”, “C. V:” for “C.”
as §2, §7

CCCCOCN(C(=O)CCl)c1c(CC)cccc1CC [Butachlor, butachlor]
LC50 at 24 h ([1]; Japanese medaka larvae, chlorpyrifos:butachlor ratio 4:1, 24 h, read-out: LC50 (95% CI) of the component in the mixture): 0.2 mg/L
LC50 at 96 h ([1]; Japanese medaka larvae, chlorpyrifos:butachlor ratio 4:1, 96 h, read-out: LC50 (95% CI) of the component in the mixture): 0.036 mg/L
LC50 at 24 h ([1]; other: immersion in test solution (waterborne exposure), Japanese medaka larvae, chlorpyrifos:butachlor ratio 1:1, 24 h, read-out: LC50 (95%) CI of the component in the mixture): 1.53 mg/L
LC50 at 48 h ([1]; other: immersion in test solution (waterborne exposure), Japanese medaka larvae, chlorpyrifos:butachlor ratio 1:1, 48 h, read-out: LC50 (95%) CI of the component in the mixture): 1.22 mg/L
LC50 at 72 h ([1]; other: immersion in test solution (waterborne exposure), Japanese medaka larvae, chlorpyrifos:butachlor ratio 1:1, 72 h, read-out: LC50 (95%) CI of the component in the mixture): 0.93 mg/L
LC50 at 96 h ([1]; other: immersion in test solution (waterborne exposure), Japanese medaka larvae, chlorpyrifos:butachlor ratio 1:1, 96 h, read-out: LC50 (95%) CI of the component in the mixture): 0.81 mg/L
LC50 at 48 h ([1]; other: immersion in test solution (waterborne exposure), Japanese medaka larvae, chlorpyrifos:butachlor ratio 4:1, 48 h, read-out: LC50 (95% CI) of the component in the mixture): 0.15 mg/L
LC50 at 72 h ([1]; other: immersion in test solution (waterborne exposure), Japanese medaka larvae, chlorpyrifos:butachlor ratio 4:1, 72 h, read-out: LC50 (95% CI) of the component in the mixture): 0.11 mg/L
LC50 at 24 h ([1]; other: immersion in test solution (waterborne exposure), chlorpyrifos:butachlor ratio 1:4, 24 h, read-out: LC50 (95% CI) of the component in the mixture): 2.29 mg/L
LC50 at 48 h ([1]; other: immersion in test solution (waterborne exposure), chlorpyrifos:butachlor ratio 1:4, 48 h, read-out: LC50 (95% CI) of the component in the mixture): 1.3 mg/L
LC50 at 72 h ([1]; other: immersion in test solution (waterborne exposure), chlorpyrifos:butachlor ratio 1:4, 72 h, read-out: LC50 (95% CI) of the component in the mixture): 1.14 mg/L
LC50 at 96 h ([1]; other: immersion in test solution (waterborne exposure), chlorpyrifos:butachlor ratio 1:4, 96 h, read-out: LC50 (95% CI) of the component in the mixture): 0.88 mg/L
LC50 at 24 h ([1]; other: immersion in test solution (waterborne exposure), chlorpyrifos:butachlor ratio 2:3, 24 h, read-out: LC50 (95% CI) of the component in the mixture): 2.29 mg/L
LC50 at 48 h ([1]; other: immersion in test solution (waterborne exposure), chlorpyrifos:butachlor ratio 2:3, 48 h, read-out: LC50 (95% CI) of the component in the mixture): 0.66 mg/L
LC50 at 72 h ([1]; other: immersion in test solution (waterborne exposure), chlorpyrifos:butachlor ratio 2:3, 72 h, read-out: LC50 (95% CI) of the component in the mixture): 0.43 mg/L
LC50 at 96 h ([1]; other: immersion in test solution (waterborne exposure), chlorpyrifos:butachlor ratio 2:3, 96 h, read-out: LC50 (95% CI) of the component in the mixture): 0.35 mg/L
LC50 at 24 h ([1]; other: immersion in test solution (waterborne exposure), chlorpyrifos:butachlor ratio 3:2, 24 h, read-out: LC50 (95% CI) of the component in the mixture): 1.48 mg/L
LC50 at 48 h ([1]; other: immersion in test solution (waterborne exposure), chlorpyrifos:butachlor ratio 3:2, 48 h, read-out: LC50 (95% CI) of the component in the mixture): 1.29 mg/L
LC50 at 72 h ([1]; other: immersion in test solution (waterborne exposure), chlorpyrifos:butachlor ratio 3:2, 72 h, read-out: LC50 (95% CI) of the component in the mixture): 0.87 mg/L
LC50 at 96 h ([1]; other: immersion in test solution (waterborne exposure), chlorpyrifos:butachlor ratio 3:2, 96 h, read-out: LC50 (95% CI) of the component in the mixture): 0.66 mg/L
LC50 at 24 h ([2]; exposure time 24 h): 0.85 mg/L (≈ 2.73 µM)
LC50 at 48 h ([2]; exposure time 48 h): 0.72 mg/L (≈ 2.31 µM)
LC50 at 72 h ([2]; exposure time 72 h): 0.54 mg/L (≈ 1.73 µM)
LC50 at 96 h ([2]; exposure time 96 h): 0.43 mg/L (≈ 1.38 µM)
LC50 at 24 h ([3]; exposure time 24 h): 0.67 mg/L (≈ 2.15 µM)
LC50 at 48 h ([3]; exposure time 48 h): 0.59 mg/L (≈ 1.89 µM)
LC50 at 72 h ([3]; exposure time 72 h): 0.51 mg/L (≈ 1.64 µM)
LC50 at 96 h ([3]; exposure time 96 h): 0.44 mg/L (≈ 1.41 µM)
LC50 at 24 h ([4]; equitoxic ratio): 0.91 mg/L
LC50 at 48 h ([4]; equitoxic ratio): 0.72 mg/L
LC50 at 72 h ([4]; equitoxic ratio): 0.45 mg/L
LC50 at 96 h ([4]; equitoxic ratio): 0.26 mg/L
LC50 at 24 h ([4]; equivalent concentration (1:1)): 0.18 mg/L
LC50 at 48 h ([4]; equivalent concentration (1:1)): 0.16 mg/L
LC50 at 72 h ([4]; equivalent concentration (1:1)): 0.14 mg/L
LC50 at 96 h ([4]; equivalent concentration (1:1)): 0.11 mg/L
LC50 at 24 h ([5]; exposure time 24 h): 32.8 mg/L (≈ 105 µM)
LC50 at 48 h ([5]; exposure time 48 h): 5.82 mg/L (≈ 18.7 µM)
LC50 at 72 h ([5]; exposure time 72 h): 4.42 mg/L (≈ 14.2 µM)
LC50 at 96 h ([5]; exposure time 96 h): 1.93 mg/L (≈ 6.19 µM)
effects of exposure on zebrafish embryo development (zebrafish embryos): egg coagulation, pericardial edema, yolk sac edema, and spinal curvature
times more toxic to zebrafish embryos than chlorpyrifos (zebrafish embryos; 96 h): 6.75 times
